“Also recorded” adds a separate entry of the source. Residues, ends and D or L forms follow the SMILES beside them. *: point of attachment. Palmitoyl = CCCCCCCCCCCCCCCC(=O)*
Assays:
[1] = system: primary rat cortical neurons; test: LDH cytotoxicity in primary rat cortical neurons; type: cell-based; details: 0.01 nM to 1 μM, 72 hr
Procedure: A density of 5×10^5 of primary rat cortical neurons were seeded on culture dish and individually cultured in medium containing 0.01, 0.1, 1, 5, 10, 50, 100, 250, 500, 750, and 1000 nM of P3V8 peptide (transfected with DeliverX). The lactate dehydrogenase (LDH) cytotoxicity activity was measured 72 hr post-treatment. Fold change of LDH activity was normalized to untreated cells. Data are expressed as mean±S.E.M. for 3 independent experiments. NS indicates no significance.
The LDH cytotoxicity activity was measured 72 hr posttreatment. Fold change of LDH activity was normalized to untreated cells. Data are expressed as mean±S.E.M. for 3 independent experiments. NS indicates no significance.
Because of the aim to develop P3V8 into a potent inhibitor that targets RNA toxicity in degenerating cells within the nervous system, it was assessed whether P3V8 had deleterious effects on neuronal cells by determining lactate dehydrogenase release in the culturing medium of rat cortical neurons.

[2] = system: wild type Drosophila; test: Egg-to-adult viability test of wild-type flies; type: in vivo; details: 10 or 50 μM in fly food, 21.5° C.
Procedure: Eggs laid within 5 hr were collected and cultured in fly food containing 10 or 50 μM of respective peptides at 21.5° C. Viability from egg to adult was calculated as the number of adult flies collected divided by the number of eggs examined. Data are expressed as mean±S.E.M. for 3 independent experiments. NS indicates no significance.
Flies were raised at 21.5° C. on cornmeal medium supplemented with dry yeast. Fly lines bearing UAS-DsRedCAG0 and UAS-DsRedCAG100 were kind gifts of Professor Nancy Bonini (University of Pennsylvania, USA). The gmr-GAL4 fly line was obtained from Bloomington Drosophila Stock Center. For pseudopupil assay, third instar larvae were fed with various amount of respective peptides dissolved in 2% sucrose solution for 2 hr and then continued to culture in standard fly food at 21.5° C.^38. Pseudopupil assay was performed on 12 day-old adult flies as mentioned previously^39. Images were captured by SPOT Insight CCD camera controlled by the SPOT Advanced software (Diagnostic instruments Inc.). Image processing was performed using the Adobe Photoshop CS software (Adobe). Each experiment was repeated at least 3 times (n=10 fly heads), and consistent results were obtained. […] Viability from egg-to-adult was calculated as the number of adult flies collected divided by the number of eggs examined. […]

[3] = target: MJDCAG27 RNA; test: Isothermal titration calorimetry binding assay, unexpanded MJDCAG27 RNA
Procedure: (§1) To test whether P3V8 specifically targets expanded CAG RNA, ITC experiments were performed using unexpanded CAG RNA (MJDCAG27 RNA), expanded CAG RNA (MJDCAG78 RNA), and expanded CAA/G RNA (MJDCAA/G78 RNA), respectively, to investigate whether the binding of P3V8 is RNA expansion-dependent and sequence-dependent (Table 6).
(§2) Experiments were carried out using a MicroCal iTC200 isothermal titration calorimeter (GE Healthcare) at 25° C. Data were analyzed using the Origin® scientific plotting software version 7 (Microcal Software Inc.). All RNAs and peptides were dissolved in binding buffer (20 mM MOPS, pH 7.0; 300 mM NaCl) and 0.7 mM of peptide was titrated into 0.5 μM of RNA for each experiment. The concentration of RNA was estimated with appropriate extinction coefficients at 260 nm on a Nanodrop 2000 (Thermo Scientific). A reference power of 8 μcal/s was used with an initial 0.5 μl of injection of peptide followed by 2 μl for all subsequent titrations points with a 60 sec initial equilibrium delay and 150 sec pause between injections. The samples were stirred at a speed of 1000 rpm throughout the experiment. The thermal titration data were fitted to the ‘one binding site model’ to determine the dissociation constant (KD). Each experiment was repeated at least 3 times with consistent results obtained.

[4] = target: MJDCAA/G78 RNA; test: Isothermal titration calorimetry binding assay, expanded MJDCAA/G78 RNA
Procedure: as §1, §2

[5] = target: MJDCAG78 RNA; test: Isothermal titration calorimetry binding assay, expanded MJDCAG78 RNA; details: ITC at 25° C.; 0.7 mM peptide titrated into 0.5 μM MJDCAG78 RNA; one binding site model; mean ± S.E.M.
Procedure: as §2

[6] = system: pre-rRNA; test: Real-time PCR of pre-rRNA level in DsRedCAG100 flies; type: in vivo, Drosophila; details: 1 μM
Procedure: Ribosomal RNA (rRNA) synthesis occurs within the nucleolus^15. It was previously shown that expanded CAG RNA induces nucleolar stress by preventing the nucleolar protein NCL from binding to the upstream control element of the rRNA promoter, leading to the downregulation of rRNA transcription^13. To investigate whether P3V8 suppressed neurotoxicity by alleviating expanded CAG RNA-induced nucleolar stress in vivo, the expression levels of pre-rRNA in were measured DsRedCAG100 flies treated with the peptide. […] This confirms that P3V8 subdued polyQ neurodegeneration in vivo by effective mitigation of the expanded CAG RNA-induced nucleolar stress.
RNA was extracted from cells or ten 12 day-old adult fly heads by Trizol reagent (Life Technologies), and 1 μg of purified RNA was then used for reverse-transcription using the ImPromII™ Reverse Transcription System (Promega). Random hexamer (Roche) was used as primers in reverse transcription. Taqman gene expression assays were performed on an ABI 7500 Real-time PCR system and data were analyzed as previously described^13. The following probes were used: pre-45s rRNA (Assay ID: AILJIZM), pre-rRNA (Assay ID: AIMSG5U), Drosophila GAPDH (Assay ID: Dm01841186) and human actin (Assay ID: Hs99999903_m1). Each experiment was repeated at least 3 times.

| Compound | cytotoxicity (LDH release) [1] | egg-to-adult viability [2] | Kd ([3]; ITC, 0.7 mM peptide into 0.5 μM MJDCAG27 RNA, mean ± S.E.M.) [µM] | lower affinity than for expanded CAG RNA ([3]; unexpanded RNA vs expanded MJDCAG78 RNA) | Kd ([4]; ITC, 0.7 mM peptide into 0.5 μM MJDCAA/G78 RNA, mean ± S.E.M.) [µM] | lower affinity than for expanded CAG RNA ([4]; expanded CAA/G RNA vs expanded MJDCAG78 RNA) | Kd [5] [µM] | pre-rRNA level [6] |
| --- | --- | --- | --- | --- | --- | --- | --- | --- |
| CCCCCCCCCCCCCCCC(=O)N[C@@H](CC(=O)O)C(=O)NCC(=O)N[C@@H](CCCCN)C(=O)N[C@@H](CO)C(=O)N[C@@H](CCCCN)C(=O)NCC(=O)N[C@H](C(=O)N[C@@H](C)C(=O)N[C@@H](Cc1ccc(O)cc1)C(=O)N[C@H](C(=O)N[C@@H](CCC(=O)O)C(=O)N[C@@H](Cc1ccccc1)C(=O)N[C@@H](CCCCN)C(N)=O)[C@@H](C)CC)[C@@H](C)CC [L1P3V8] (Palmitoyl-DGKSKGIAYIEFK-NH2) | no cytotoxic effects; also recorded: no cytotoxicity | no obvious alteration; also recorded: did not affect the viability |  |  |  |  |  |  |
| Ac-DGKSKGIAYIEFK-NH2 [P3V8] |  |  | 2.19 ± 0.27 | 6-9 fold | 2.94 ± 0.96 | 6-9 fold | 0.33 | fully recovered to the DsRedCAG0 control level |

From US10570177B2, “P3 peptidylic inhibitors for treating CAG-repeat RNA toxicity in polyglutamine diseases” (The Chinese University of Hong Kong, priority 2017, dated 2020)
